The test relates to Primary articular chondrocytes from normal bovine knees. Description: NO Release Assay in Bovine Chondrocytes (inhibition of cytokine induced NO release, Greiss reagent). The test is classed as cell-based. To be noted: Bos taurus, Chondrocyte; 20 ng/ml TNFα and 10 ng/ml human oncostatin M, 48 hours; read-out: NO Inh. IC50. The method, then: The compounds of the present invention were evaluated in two functional assays to assess their chondrogenesis activities (Type II Collagen Expression) and chondrocyte protective activities (NO release assay).
The assay was described in Johnson, K., et al., (2012) Science 336, 717-721. Chondrocytes release NO during OA pathogenesis. This assay measures the inhibition of nitric oxide release by the treated compound (an indicator of chondro-protection) Primary articular chondrocytes from normal bovine knees (Animal Technologies, Tyler, Tex.) were isolated after dissection and collagenase digestion (Worthington Biochemical) of the tibial plateau and femoral condyle articular cartilage. The cells were initially plated at 80-90% confluency after isolation. Primary chondrocytes were cultured in high-glucose Dulbecco's modified Eagle's medium (DMEM) supplemented with 10% fetal bovine serum (FBS), 1% L-glutamine, 100 units/ml of penicillin, and 50 μg/ml of streptomycin (Life Technologies, Carlsbad, Calif.) and maintained at 37° C. in the presence of 5% CO2 for 7 days prior to initiation of each experiment. During the 7-day culture period, the cells adhered and established a chondrocyte-like appearance that was maintained throughout the experimental period. Functional studies on chondrocytes were performed in high-glucose DMEM with no FBS unless indicated otherwise.
After one week of culture, 8500 cells were plated per well in Greiner 384 well white clear bottom plates in growth media. Following 24 hours of culture, the media was removed and replaced with serum free DMEM containing 20 ng/ml TNFα and 10 ng/ml human oncostatin M (inflammatory mediators). […] 20 μl of the supernatant was mixed with 20 μl of the Greiss reagent (Promega # G2930) and quantitated at 540 nm. The Greiss reagent part A (1% Sulfanilamide in 5% phosphoric acid) was mixed at a 1:1 ration with Greiss reagent part B (0.1% N-1-napthylethylenediamine dihydrochloride in water) immediately prior to added to the culture supernatant.
Turning to `O=C(Nc1ccc(Cl)c(Cl)c1)[C@@H]1[C@@H](c2cccc(C(F)(F)F)n2)[C@@H]2CC[C@H]1O2` [Compound 92], the IC50 (usually the midpoint of a concentration-inhibition curve) was greater than 33 µM.
As to `C[C@]12CC[C@](C)(O1)[C@@H](c1ccncc1)[C@H]2C(=O)Nc1ccc(-c2ccccc2F)c(F)c1` [Compound 93], the half-maximal inhibitory concentration (IC50) was greater than 33 µM.
Then `O=C(Nc1ccc(-c2ccccc2F)c(F)c1)[C@@H]1[C@H](c2ccnc(F)c2Cl)[C@@H]2CC[C@H]1O2` [Compound 95], with 0.18 µM; and `O=C(Nc1ccc(-c2ccccc2F)c(F)c1)C1=C(c2ccnc(F)c2Cl)[C@@H]2CCC1O2` [Compound 97], with 22.6 µM.
Then `O=C(Nc1ccc(-c2ccccc2)c(Cl)c1)[C@@H]1[C@@H](c2ccncc2)[C@@H]2CC[C@H]1O2` [Compound 98], with greater than 33 µM; and `O=C(Nc1ccc(-c2ccccc2)c(Cl)c1)[C@H]1[C@@H](c2ccncc2)[C@@H]2CC[C@H]1O2` [Compound 104], with greater than 33 µM.
Then `O=C(Nc1ccc(-c2ccccc2F)c(F)c1)C1=C(c2ccncc2F)[C@@H]2CCC1O2` [Compound 109], with greater than 33 µM.
`O=C(Nc1ccc(-c2ccc(F)cc2F)c(F)c1)[C@@H]1[C@@H](c2ccncc2)[C@@H]2CC[C@H]1O2` [Compound 111]: the concentration for half-maximal inhibition (IC50) is greater than 33 µM.
Turning to `O=C(Nc1ccc(-c2ccccc2F)c(F)c1)C1=C(c2cc(Cl)nc(Cl)c2)[C@@H]2CC[C@H]1O2` [Compound 116], the IC50 was 0.12 µM.
Then `O=C(Nc1ccc(Cl)c(Cl)c1)[C@@H]1[C@@H](c2ccncc2)[C@@H]2CC[C@H]1O2` [Compound 118, (1R,2R,3S,4S)—N-(3,4-dichlorophenyl)-3-(pyridin-4-yl)-7-oxabicyclo[2.2.1]heptane-2-carboxamide], with greater than 33 µM; and `O=C(Nc1ccc(-c2ccccc2)cc1)[C@H]1[C@@H](c2cccnc2)[C@H]2CC[C@@H]1O2` [Compound 121], with greater than 23 µM.
`Cn1ccc([C@@H]2[C@H](C(=O)Nc3ccc(-c4ccccc4)cc3)[C@@H]3CC[C@H]2O3)n1` [Compound 122]: the IC50 was greater than 33 µM.
Take `O=C(Nc1ccc(-c2ccccc2Cl)c(F)c1)[C@H]1[C@@H](c2cccc(C(F)(F)F)n2)[C@H]2CC[C@@H]1O2` [Compound 123]: the IC50 is greater than 11 µM.
Then `CCOC(=O)c1ccc(NC(=O)C2=C(c3cccc(C(F)(F)F)n3)[C@@H]3CCC2O3)cc1` [Compound 129], with greater than 33 µM.
Take `O=C(Nc1ccc(Cl)c(Cl)c1)[C@@H]1[C@H](c2ccncc2)[C@@H]2CC[C@H]1O2` [Compound 135]: the IC50 was greater than 33 µM.
Then `O=C(Nc1ccc(Cl)c(Cl)c1)C1=C(c2cccc(C(F)(F)F)n2)[C@@H]2CC[C@H]1O2` [Compound 136], with 0.14 µM.
The value for `Cn1nc(C(F)(F)F)cc1C1=C(C(=O)Nc2ccc(-c3ccccc3F)c(F)c2)C2CC[C@@H]1O2` [Compound 137] was 8.2 µM; that for `O=C(Nc1ccc(Cl)c(Cl)c1)[C@H]1C2CC[C@H](O2)[C@H]1c1cnccn1` [Compound 140] was greater than 33 µM; that for `Cn1nc(C(F)(F)F)cc1C1=C(C(=O)Nc2ccc(Cl)c(Cl)c2)[C@H]2CC[C@@H]1O2` [Compound 141] was 17 µM.
The value for `CCOC(=O)c1ccc(NC(=O)C2=C(c3cc(C(F)(F)F)nn3C)[C@@H]3CC[C@H]2O3)cc1` [Compound 142] was greater than 33 µM; that for `O=C(Nc1ccc(Cl)c(Cl)c1)C1=C(c2cnccn2)[C@@H]2CC[C@H]1O2` [Compound 144] was greater than 33 µM.
Take `CCOC(=O)c1ccc(NC(=O)[C@H]2[C@H](c3ccc(OC)cn3)[C@@H]3CC[C@H]2O3)cc1` [Compound 151]: the half-maximal inhibitory concentration (IC50) is greater than 33 µM.
The value for `O=C(Nc1ccc(Cl)c(Cl)c1)[C@@H]1[C@H](c2cccc(C(F)(F)F)n2)[C@@H]2CC[C@H]1O2` [Compound 155, (1R,2R,3R,4S)—N-(3,4-dichlorophenyl)-3-(6-(trifluoromethyl)pyridin-2-yl)-7-oxabicyclo[2.2.1]heptane-2-carboxamide] was greater than 33 µM; that for `O=C(Nc1cccc(C(F)(F)F)c1F)C1=C(c2cccc(C(F)(F)F)n2)C2CCC1O2` (centres unmarked) [Compound 157] was 25 µM.
The value for `O=C(Nc1ccc(-c2ccccc2)c(Cl)c1)C1=C(c2cccc(C(F)(F)F)n2)[C@@H]2CC[C@H]1O2` [Compound 160, (1R,4S)—N-(2-chloro-[1,1′-biphenyl]-4-yl)-3-(6-(trifluoromethyl)pyridin-2-yl)-7-oxabicyclo[2.2.1]hept-2-ene-2-carboxamide] was 5.4 µM; that for `O=C(Nc1ccc(Cl)c(Cl)c1)[C@H]1[C@H](c2ccncc2)[C@@H]2CC[C@H]1O2` [Compound 162] was greater than 33 µM.
The value for `O=C(Nc1ccc(-c2ccccc2F)c(F)c1)C1=C(c2cnccn2)[C@@H]2CC[C@H]1O2` [Compound 164] was greater than 33 µM; that for `Cc1ccnc([C@H]2[C@@H](C(=O)Nc3ccc(-c4ccccc4F)c(F)c3)[C@H]3CC[C@@H]2O3)c1` [Compound 166] was greater than 33 µM.
As for `O=C(Nc1ccc(-c2ccccc2F)c(F)c1)C1=C(c2ccnc(N3CC[C@H](O)C3)c2)[C@@H]2CC[C@H]1O2` [Compound 167], the IC50 is greater than 33 µM.

(Values after patent US9688689B2, “Compounds and compositions for inducing chondrogenesis” (Novartis AG, priority 2014, dated 2017).)
